Experimental findings from ChEMBL document CHEMBL5055679, “Discovery of a Novel Androgen Receptor Antagonist Manifesting Evidence to Disrupt the Dimerization of the Ligand-Binding Domain via Attenuating the Hydrogen-Bonding Network Between the Two Monomers” (J Med Chem, 2021) are described below.

The source made the active and inactive calls. The rule behind the calls is not given here.

In one data set the target is T1, Androgen receptor (Homo sapiens) (UniProt P10275).
T1 sequence (whole entry): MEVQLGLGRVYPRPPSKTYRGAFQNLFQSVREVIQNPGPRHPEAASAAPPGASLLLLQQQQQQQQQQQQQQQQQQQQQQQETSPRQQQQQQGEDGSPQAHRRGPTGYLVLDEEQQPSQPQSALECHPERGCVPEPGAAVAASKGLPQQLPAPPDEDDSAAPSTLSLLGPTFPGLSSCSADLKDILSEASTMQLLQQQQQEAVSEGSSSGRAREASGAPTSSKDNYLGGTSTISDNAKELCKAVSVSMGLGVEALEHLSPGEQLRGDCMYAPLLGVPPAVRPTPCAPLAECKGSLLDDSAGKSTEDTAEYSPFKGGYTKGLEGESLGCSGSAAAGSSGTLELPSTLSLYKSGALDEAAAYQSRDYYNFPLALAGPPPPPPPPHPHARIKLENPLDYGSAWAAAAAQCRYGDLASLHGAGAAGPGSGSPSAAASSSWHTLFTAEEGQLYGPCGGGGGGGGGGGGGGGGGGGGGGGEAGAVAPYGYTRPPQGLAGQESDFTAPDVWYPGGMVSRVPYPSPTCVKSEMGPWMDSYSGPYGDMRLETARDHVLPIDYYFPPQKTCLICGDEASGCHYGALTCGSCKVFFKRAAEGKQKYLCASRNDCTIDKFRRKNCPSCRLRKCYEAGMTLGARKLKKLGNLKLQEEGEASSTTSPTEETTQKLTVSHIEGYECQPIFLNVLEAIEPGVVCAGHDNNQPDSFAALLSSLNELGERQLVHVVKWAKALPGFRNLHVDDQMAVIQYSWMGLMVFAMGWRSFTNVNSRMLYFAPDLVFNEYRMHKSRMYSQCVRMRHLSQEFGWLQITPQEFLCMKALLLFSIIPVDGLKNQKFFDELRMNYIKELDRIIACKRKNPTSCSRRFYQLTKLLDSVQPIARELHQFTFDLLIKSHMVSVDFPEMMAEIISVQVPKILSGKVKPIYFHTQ
Put plainly: Inhibition of AR transcriptional activity in human LNCaP cells harboring ARR2PB-eGFP at 10 uM incubated for 72 hrs by fluorescence assay. The note with it: filed as antagonist. It counts as cell-based.
On to `CC(C(=O)Nc1ccccc1Cl)c1ccc(-c2ccccc2)c(F)c1` (stereo not drawn), for which the inhibition was 40%.

Take `O=c1cc(C(F)(F)F)c2ccc(/N=C/c3ccccc3O)cc2o1`: the inhibition was determined as 40%.

Compound `Cc1ccc(NCc2ccccc2OCc2cccc3ccccc23)cc1` registered an inhibition of 40%.

Compound `O=C1C2CC=CCC2C(=O)N1c1cccc(C(F)(F)F)c1` (stereo not drawn) gave an inhibition of 40%.

A further data set concerns the target T2, Androgen receptor (Homo sapiens, UniProt P10275).
T2 sequence (P10275 whole entry): T1 sequence (whole entry)
Details: not given
Regarding `O=c1cc(C(F)(F)F)c2ccc(/N=C/c3ccccc3O)cc2o1`, the half-inhibitory concentration (IC50) came out at 1.66 µM.

The next data set addresses T2, Androgen receptor. Put plainly: Inhibition of AR transcriptional activity in human LNCaP cells harboring ARR2PB-eGFP incubated for 72 hrs by fluorescence assay. Format: cell-based.
Details: not given
`C[C@H](Oc1cc(Cl)ccc1Cl)C(=O)Nc1ccc2c(C(F)(F)F)cc(=O)oc2c1` displayed an IC50 of over 50 µM.

As for `O=c1cc(C(F)(F)F)c2ccc(OCc3ccccn3)cc2o1`, the IC50 is over 50 µM.

Take `COc1ccc(COc2ccc3c(C(F)(F)F)cc(=O)oc3c2)cc1`: it took 1.62 µM to reach half-maximal inhibition (IC50).

For the compound `CCn1cc(C(=O)Nc2ccc3c(C(F)(F)F)cc(=O)oc3c2)c(C)n1`, the IC50 is over 50 µM.

`O=c1cc(C(F)(F)F)c2ccc(OCc3cccc(Br)c3)cc2o1` displayed an IC50 of 2.28 µM.

For the compound `O=c1cc(C(F)(F)F)c2ccc(OCc3ccncc3)cc2o1`, inhibition was half-maximal at 1.9 µM (IC50).

`O=c1cc(C(F)(F)F)c2ccc(OCc3ccc4c(c3)OCO4)cc2o1` displayed a half-maximal inhibitory concentration (IC50) of 9.37 µM.

Turning to `CC(C)c1ccc(COc2ccc3c(C(F)(F)F)cc(=O)oc3c2)cc1`, the midpoint of inhibition, the IC50, lay at 9.26 µM.

Consider `N#Cc1cccc(/N=C/c2ccccc2O)c1`, for which the IC50 is over 50 µM.

As for `CCOC(=O)C(CC)Oc1ccc2c(C(F)(F)F)cc(=O)oc2c1` (stereo not drawn), the IC50 was over 50 µM.

Compound `COc1ccc([N+](=O)[O-])cc1COc1ccc2c(C(F)(F)F)cc(=O)oc2c1` displayed a half-maximal inhibitory concentration (IC50) of over 50 µM.

Regarding `Oc1ccccc1/C=N/c1ccc(Cl)c(Cl)c1`, the 50% inhibitory concentration (IC50) was over 50 µM.

As to `O=c1cc(C(F)(F)F)c2ccc(OCc3ccc(OC(F)(F)F)cc3)cc2o1`, the IC50 is 25.1 µM.

As to `O=C(Nc1ccc2c(C(F)(F)F)cc(=O)oc2c1)c1ccccc1`, the IC50 was over 50 µM.

As for `O=C(Nc1ccc2c(C(F)(F)F)cc(=O)oc2c1)c1ccccc1Cl`, the half-maximal inhibitory concentration (IC50) is over 50 µM.

Compound `Cc1cccc(C(=O)Nc2ccc3c(C(F)(F)F)cc(=O)oc3c2)c1` came in with an IC50 of over 50 µM.

`CC(=O)c1ccc(COc2ccc3c(C(F)(F)F)cc(=O)oc3c2)cc1` came in with an IC50 of over 50 µM.

As to `O=c1cc(C(F)(F)F)c2ccc(OCc3ccccc3)cc2o1`, the IC50 stood at 1.18 µM.

As for `O=c1cc(C(F)(F)F)c2ccc(/N=C/c3ccccc3O)cc2o1`, the IC50 stood at 5.57 µM.

As for `Cc1ccc(/N=C/c2ccccc2O)cc1Br`, the IC50 is over 50 µM.

With `O=c1cc(C(F)(F)F)c2ccc(OCc3ccccc3Cl)cc2o1`, the IC50 was found to be 0.41 µM.

`O=c1cc(C(F)(F)F)c2ccc(OCc3ccc(C(F)(F)F)cc3)cc2o1` came in with a 50% inhibitory concentration (IC50) of 0.89 µM.

`O=C(c1ccccc1)c1ccc(/N=C/c2ccccc2O)cc1` registered an IC50 of over 50 µM.

On to `O=C(Nc1ccc2c(C(F)(F)F)cc(=O)oc2c1)c1cccc(Cl)c1`, for which the IC50 is over 50 µM.

`Cn1cc(C(=O)Nc2ccc3c(C(F)(F)F)cc(=O)oc3c2)c(I)n1` showed an IC50 of over 50 µM.

For the compound `Cc1ccc(COc2ccc3c(C(F)(F)F)cc(=O)oc3c2)cc1`, the concentration for half-maximal inhibition (IC50) was 0.61 µM.

Compound `O=c1cc(C(F)(F)F)c2ccc(OCc3cc4c(cc3Cl)OCO4)cc2o1` had a 50% inhibitory concentration (IC50) of 1.47 µM.

Compound `O=c1cc(C(F)(F)F)c2ccc(OCc3ccc4ccccc4c3)cc2o1` returned an IC50 of over 50 µM.

Consider `COC(=O)c1ccc(COc2ccc3c(C(F)(F)F)cc(=O)oc3c2)cc1`, for which the 50% inhibitory concentration (IC50) came to 30.7 µM.

Turning to `NC(=O)c1ccc(COc2ccc3c(C(F)(F)F)cc(=O)oc3c2)cc1`, the IC50 was over 50 µM.

As for `Cc1cccc(COc2ccc3c(C(F)(F)F)cc(=O)oc3c2)c1`, the IC50 worked out at 1.4 µM.

`O=C(Nc1ccc2c(C(F)(F)F)cc(=O)oc2c1)c1nc2ncccn2n1`: the concentration for half-maximal inhibition (IC50) was over 50 µM.

Turning to `Cn1cc(C(=O)Nc2ccc3c(C(F)(F)F)cc(=O)oc3c2)c(Br)n1`, the 50% inhibitory concentration (IC50) is over 50 µM.

Compound `COC(=O)C(CC(C)C)Oc1ccc2c(C(F)(F)F)cc(=O)oc2c1` (stereo not drawn) displayed an IC50 of over 50 µM.

Turning to `O=C(Nc1ccc2c(C(F)(F)F)cc(=O)oc2c1)c1ccccc1F`, the concentration for half-maximal inhibition (IC50) was over 50 µM.

Regarding `Cn1cc(C(=O)Nc2ccc3c(C(F)(F)F)cc(=O)oc3c2)cn1`, the IC50 was over 50 µM.

`O=c1cc(C(F)(F)F)c2ccc(OCc3ccc(F)cc3)cc2o1` yielded a 50% inhibitory concentration (IC50) of 0.47 µM.

`Oc1ccccc1/C=N/c1ccc2oc(-c3ccccc3)nc2c1` registered an IC50 of over 50 µM.

Regarding `O=C(Oc1ccc2c(C(F)(F)F)cc(=O)oc2c1)C1CCCCC1`, the half-maximal inhibitory concentration (IC50) was over 50 µM.

In the case of `O=c1cc(C(F)(F)F)c2ccc(OCc3cccnc3)cc2o1`, the IC50 is over 50 µM.

In turn, `O=c1cc(C(F)(F)F)c2ccc(OCc3ccccc3F)cc2o1` gave a 50% inhibitory concentration (IC50) of 0.92 µM.

Turning to `O=c1cc(C(F)(F)F)c2ccc(OCc3ccc([N+](=O)[O-])cc3)cc2o1`, the IC50 was over 50 µM.

`O=c1cc(C(F)(F)F)c2ccc(OCc3ccccc3Br)cc2o1` returned an IC50 of 0.94 µM.

Compound `O=c1cc(C(F)(F)F)c2ccc(OCc3ccc(Cl)cc3)cc2o1` yielded an IC50 of 1.04 µM.

In turn, `Cc1ccc(OC(=O)Nc2ccc3c(C(F)(F)F)cc(=O)oc3c2)c(C)c1` yielded a concentration for half-maximal inhibition (IC50) of over 50 µM.

Compound `O=c1cc(C(F)(F)F)c2ccc(OCc3c(F)cccc3Cl)cc2o1` returned a half-inhibitory concentration (IC50) of 0.78 µM.

As to `O=c1cc(C(F)(F)F)c2ccc(OCc3ccc(-c4ccccc4)cc3)cc2o1`, the IC50 is over 50 µM.

Another data set has as its system GES1. Briefly: Cytotoxicity against human GES1 cells assessed as reduction in cell viability incubated for 72 hrs by MTT assay. It counts as cell-based. The settings on record: ges1, 72 h. (Formazan colour is commonly taken as a measure of viable cells.)
On to `CNC(=O)c1ccc(N2C(=S)N(c3ccc(C#N)c(C(F)(F)F)c3)C(=O)C2(C)C)cc1F` [ENZALUTAMIDE], for which the Activity result was “Non-Toxic”.

In a further data set the test system is NIH3T3. Briefly: Cytotoxicity against mouse NIH3T3 cells assessed as reduction in cell viability incubated for 72 hrs by MTT assay. Format: cell-based. The settings on record: nih3t3, 72 h.
Consider `CNC(=O)c1ccc(N2C(=S)N(c3ccc(C#N)c(C(F)(F)F)c3)C(=O)C2(C)C)cc1F` [ENZALUTAMIDE], for which the Activity result is recorded as “Non-Toxic”.

In a further data set the test system is LNCaP. Briefly: Inhibition of colony formation in human LANCaP cells after 2 weeks by crystal violet staining based assay. It counts as functional, cell-based. The settings on record: dose 2-20 µM.
On to `CNC(=O)c1ccc(N2C(=S)N(c3ccc(C#N)c(C(F)(F)F)c3)C(=O)C2(C)C)cc1F` [ENZALUTAMIDE], for which the inhibition entry is “Dose-dependent effect”.

A further data set concerns the target T2, Androgen receptor. Put plainly: Inhibition of AR transcriptional activity in human LNCaP cells harboring ARR2PB-eGFP assessed as decrease in PSA level. It counts as cell-based, LN-18.
Details: not given
As to `O=c1cc(C(F)(F)F)c2ccc(/N=C/c3ccccc3O)cc2o1`, the IC50 is 3.71 µM.

The species named for a further data set is Homo sapiens. Put plainly: Antagonist activity at human androgen receptor N756A mutant at 10 uM by dual-Glo luciferase assay. The note with it: filed as antagonist.
For the compound `CNC(=O)c1ccc(N2C(=S)N(c3cnc(C#N)c(C(F)(F)F)c3)C(=O)C23CCC3)cc1F`, the result was Active.

Consider `CNC(=O)c1ccc(N2C(=S)N(c3ccc(C#N)c(C(F)(F)F)c3)C(=O)C2(C)C)cc1F` [ENZALUTAMIDE], for which the outcome was Active.

Consider `CC(O)c1cc(C(=O)N[C@@H](C)Cn2ccc(-c3ccc(C#N)c(Cl)c3)n2)n[nH]1` (stereo partly drawn), for which the result was Active.

For another data set, the target named is T1, Androgen receptor (Homo sapiens). Put plainly: Binding affinity to GST-tagged AR ligand binding domain (unknown origin) at 10 uM measured after 4 hrs by fluorescence polarization assay.
Details: not given
Background: Polarisation of emitted light reports the rotation of a fluorescent probe.
On to `CC(C(=O)Nc1ccccc1Cl)c1ccc(-c2ccccc2)c(F)c1` (stereo not drawn), for which the result was inactive.

As to `Cc1ccc(NCc2ccccc2OCc2cccc3ccccc23)cc1`, the result was inactive.

Still in this data set, the particulars now being: filed as antagonist.
Consider `O=c1cc(C(F)(F)F)c2ccc(/N=C/c3ccccc3O)cc2o1`, for which the result was Active.

In the case of `O=C1C2CC=CCC2C(=O)N1c1cccc(C(F)(F)F)c1` (stereo not drawn), the outcome was Active.

In general, inhibition refers to the change of the read-out against control, counted positive when it falls. For orientation: IC50 means the midpoint of a concentration-inhibition curve.
